In PubChem BioAssay AID256 (DTP/NCI, 2004):
“And” between values parts separate entries of the source, which are not always exact repeats. Equal values may be shown once. Inconclusive results and toxic doses are left out. The calls were made as follows: active = survival T/C of 150% or more; inactive = T/C below 125% in these data.

Tested on: CD2F1 mice, L1210 leukemia ip, survival T/C
Assay: NCI In Vivo Anticancer Drug Screen. Data for tumor model L1210 Leukemia (intraperitoneal) in CD2F1 (CDF1) mice
Conditions: higher = longer survival
Procedure, shortened: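 Tumor-bearing mice (transplanted tumor) were split into treated and vehicle control groups, and the measured endpoint of each treated group was divided by that of its vehicle controls.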

[1] = endpoint: mean survival time, dose: 25.0 mg/kg/injection, schedule: Q01DX009 (ip), vehicle: saline with Tween-80
[2] = endpoint: mean survival time, dose: 50.0 mg/kg/injection, schedule: Q01DX009 (ip), vehicle: saline with Tween-80
[3] = endpoint: mean survival time, dose: 200.0 mg/kg/injection, schedule: Q01DX009 (ip), vehicle: saline with Tween-80
[4] = endpoint: mean survival time, dose: 100.0 mg/kg/injection, schedule: Q04DX003 (ip), vehicle: saline with Tween-80
[5] = endpoint: mean survival time, dose: 200.0 mg/kg/injection, schedule: Q04DX003 (ip), vehicle: saline with Tween-80
[6] = endpoint: mean survival time, dose: 100.0 mg/kg/injection, schedule: Q01DX009 (ip), vehicle: saline
[7] = endpoint: mean survival time, dose: 400.0 mg/kg/injection, schedule: Q04DX003 (ip), vehicle: saline with Tween-80
[8] = endpoint: mean survival time, dose: 100.0 mg/kg/injection, schedule: Q01DX009 (ip), vehicle: saline with Tween-80

Measured: T/C

CC(=O)NC(C)(NC(C)=O)C(=O)O
inactive: endpoint: mean survival time, dose: 50.0 mg/kg/injection, schedule: Q01DX009 (ip), vehicle: Klucel (hydroxypropylcellulose) (HPC) 95 % of control | endpoint: mean survival time, dose: 100.0 mg/kg/injection, schedule: Q01DX009 (ip), vehicle: Klucel (hydroxypropylcellulose) (HPC) 98 % of control | endpoint: mean survival time, dose: 200.0 mg/kg/injection, schedule: Q01DX009 (ip), vehicle: Klucel (hydroxypropylcellulose) (HPC) 95 % of control

[CH3][Sn]([CH3])([Cl])[c]1cc[c]([Sn]([CH3])([CH3])[Cl])cc1
inactive: endpoint: median survival time, dose: 0.12 mg/kg/injection, schedule: Q01DX009 (ip), vehicle: saline 100 % of control | endpoint: median survival time, dose: 0.25 mg/kg/injection, schedule: Q01DX009 (ip), vehicle: saline 101 % of control | endpoint: median survival time, dose: 0.5 mg/kg/injection, schedule: Q01DX009 (ip), vehicle: saline 105 % of control | endpoint: median survival time, dose: 1.0 mg/kg/injection, schedule: Q01DX009 (ip), vehicle: saline 101 % of control and 108 % of control | endpoint: median survival time, dose: 2.0 mg/kg/injection, schedule: Q01DX009 (ip), vehicle: saline 108 % of control and 110 % of control

[Cl][Pt][Cl].c1ccc2[nH]c(C3CCCC[N-]3)nc2c1 (stereo unspecified)
inactive: endpoint: mean survival time, dose: 12.5 mg/kg/injection, schedule: Q01DX009 (ip), vehicle: saline with Tween-80 93 % of control | [1] 98 % of control | [2] 94 % of control | [3] 91 % of control

COC1=C(C#N)CC2(C)C(CCC3C2CCC2(C)C(C(C)CCCC(C)C)CCC32)C1 (stereo unspecified)
inactive: endpoint: mean survival time, dose: 100.0 mg/kg/injection, schedule: Q04DX003 (ip), vehicle: saline sonified 92 % of control | endpoint: mean survival time, dose: 200.0 mg/kg/injection, schedule: Q04DX003 (ip), vehicle: saline sonified 93 % of control | endpoint: mean survival time, dose: 400.0 mg/kg/injection, schedule: Q04DX003 (ip), vehicle: saline sonified 92 % of control

[CH3][Sn]1([CH3])[O]C2C(CO)OC(n3cnc4c(=O)[nH]c(N)nc43)C2[O]1 (stereo unspecified)
inactive: endpoint: mean survival time, dose: 12.5 mg/kg/injection, schedule: Q01DX005 (ip), vehicle: other 98 % of control | endpoint: mean survival time, dose: 25.0 mg/kg/injection, schedule: Q01DX005 (ip), vehicle: other 101 % of control | endpoint: mean survival time, dose: 50.0 mg/kg/injection, schedule: Q01DX005 (ip), vehicle: other 102 % of control | endpoint: mean survival time, dose: 100.0 mg/kg/injection, schedule: Q01DX005 (ip), vehicle: other 93 % of control

O=c1[nH]c2cc(Cl)ccc2c2ccc(Cl)cc12
inactive: endpoint: mean survival time, dose: 50.0 mg/kg/injection, schedule: Q01DX001 (ip), vehicle: carboxymethylcellulose (CMC) 98 % of control | endpoint: mean survival time, dose: 100.0 mg/kg/injection, schedule: Q01DX001 (ip), vehicle: carboxymethylcellulose (CMC) 98 % of control | endpoint: mean survival time, dose: 200.0 mg/kg/injection, schedule: Q01DX001 (ip), vehicle: carboxymethylcellulose (CMC) 104 % of control | endpoint: mean survival time, dose: 400.0 mg/kg/injection, schedule: Q01DX001 (ip), vehicle: carboxymethylcellulose (CMC) 95 % of control

CCCCC(C#N)C(=O)OCC (stereo unspecified)
inactive: [4] 96 % of control | [5] 93 % of control

NCc1cccc(-c2nc3ncnc(N)c3[nH]2)c1
inactive: endpoint: mean survival time, dose: 50.0 mg/kg/injection, schedule: Q01DX009 (ip), vehicle: saline 101 % of control | [6] 105 % of control

CC(C)n1c(=S)[nH]c2ccccc2c1=O
inactive: [6] 97 % of control | endpoint: mean survival time, dose: 200.0 mg/kg/injection, schedule: Q01DX009 (ip), vehicle: saline 100 % of control | endpoint: mean survival time, dose: 400.0 mg/kg/injection, schedule: Q01DX009 (ip), vehicle: saline 100 % of control

NC(=O)/C(=N/O)c1ccccc1
inactive: [4] 104 % of control | [5] 106 % of control | [7] 102 % of control

CC(=O)Nc1c(Cl)c(Cl)c2c(c1Cl)Cc1cc(Br)ccc1-2
inactive: endpoint: mean survival time, dose: 25.0 mg/kg/injection, schedule: Q01DX009 (ip), vehicle: Klucel (hydroxypropylcellulose) (HPC) 109 % of control

N=c1c2ccn(C3OC(CO)C(O)C3O)c2ncn1N (stereo unspecified)
inactive: endpoint: mean survival time, dose: 12.5 mg/kg/injection, schedule: Q01DX005 (ip), vehicle: water 115 % of control | endpoint: mean survival time, dose: 25.0 mg/kg/injection, schedule: Q01DX005 (ip), vehicle: water 110 % of control | endpoint: mean survival time, dose: 50.0 mg/kg/injection, schedule: Q01DX005 (ip), vehicle: water 115 % of control and 116 % of control | endpoint: mean survival time, dose: 100.0 mg/kg/injection, schedule: Q01DX005 (ip), vehicle: water 94 % of control

COc1ccc(OC)c(C(=O)CC(O)(C(F)(F)F)C(F)(F)F)c1
inactive: [8] 97 % of control | [3] 101 % of control | endpoint: mean survival time, dose: 400.0 mg/kg/injection, schedule: Q01DX009 (ip), vehicle: saline with Tween-80 97 % of control

CC(=O)Oc1c[nH]c(=O)[nH]c1=O
inactive: endpoint: mean survival time, dose: 12.5 mg/kg/injection, schedule: Q01DX009 (ip), vehicle: distilled water + Tween-80 97 % of control and 112 % of control | endpoint: mean survival time, dose: 25.0 mg/kg/injection, schedule: Q01DX009 (ip), vehicle: distilled water + Tween-80 97 % of control and 98 % of control | endpoint: mean survival time, dose: 50.0 mg/kg/injection, schedule: Q01DX009 (ip), vehicle: distilled water + Tween-80 102 % of control and 110 % of control | endpoint: mean survival time, dose: 100.0 mg/kg/injection, schedule: Q01DX009 (ip), vehicle: distilled water + Tween-80 114 % of control and 105 % of control | endpoint: mean survival time, dose: 200.0 mg/kg/injection, schedule: Q01DX009 (ip), vehicle: distilled water + Tween-80 114 % of control and 105 % of control | endpoint: mean survival time, dose: 400.0 mg/kg/injection, schedule: Q01DX009 (ip), vehicle: distilled water + Tween-80 117 % of control and 124 % of control

[NH-]C(CO)C(=O)O.[NH-]C(CO)C(=O)O.[Pd+2] (stereo unspecified)
inactive: endpoint: mean survival time, dose: 3.13 mg/kg/injection, schedule: Q04DX003 (ip), vehicle: distilled water + Tween-80 104 % of control | endpoint: mean survival time, dose: 3.13 mg/kg/injection, schedule: Q04DX003 (ip), vehicle: saline 114 % of control | endpoint: mean survival time, dose: 3.13 mg/kg/injection, schedule: Q04DX003 (ip), vehicle: water 95 % of control | endpoint: mean survival time, dose: 6.25 mg/kg/injection, schedule: Q04DX003 (ip), vehicle: distilled water + Tween-80 96 % of control | endpoint: mean survival time, dose: 6.25 mg/kg/injection, schedule: Q04DX003 (ip), vehicle: saline 94 % of control | endpoint: mean survival time, dose: 6.25 mg/kg/injection, schedule: Q04DX003 (ip), vehicle: water 95 % of control | endpoint: mean survival time, dose: 12.5 mg/kg/injection, schedule: Q04DX003 (ip), vehicle: distilled water + Tween-80 98 % of control | endpoint: mean survival time, dose: 12.5 mg/kg/injection, schedule: Q04DX003 (ip), vehicle: saline 102 % of control | endpoint: mean survival time, dose: 12.5 mg/kg/injection, schedule: Q04DX003 (ip), vehicle: water 97 % of control | endpoint: mean survival time, dose: 25.0 mg/kg/injection, schedule: Q04DX003 (ip), vehicle: distilled water + Tween-80 95 % of control | endpoint: mean survival time, dose: 25.0 mg/kg/injection, schedule: Q04DX003 (ip), vehicle: saline 103 % of control | endpoint: mean survival time, dose: 25.0 mg/kg/injection, schedule: Q04DX003 (ip), vehicle: water 96 % of control | endpoint: mean survival time, dose: 50.0 mg/kg/injection, schedule: Q04DX003 (ip), vehicle: distilled water + Tween-80 98 % of control | endpoint: mean survival time, dose: 50.0 mg/kg/injection, schedule: Q04DX003 (ip), vehicle: saline 107 % of control | endpoint: mean survival time, dose: 50.0 mg/kg/injection, schedule: Q04DX003 (ip), vehicle: water 105 % of control | endpoint: mean survival time, dose: 100.0 mg/kg/injection, schedule: Q04DX003 (ip), vehicle: distilled water + Tween-80 102 % of control | endpoint: mean survival time, dose: 100.0 mg/kg/injection, schedule: Q04DX003 (ip), vehicle: saline 106 % of control | endpoint: mean survival time, dose: 100.0 mg/kg/injection, schedule: Q04DX003 (ip), vehicle: water 91 % of control

O=C1CC(c2ccccc2)CC(=O)O1
inactive: [4] 102 % of control | [5] 100 % of control | [7] 92 % of control

O=C(O)c1cccc2c1-c1ccccc1C(Br)C2Br (stereo unspecified)
inactive: [1] 93 % of control | endpoint: mean survival time, dose: 50.0 mg/kg/injection, schedule: Q01DX005 (ip), vehicle: saline with Tween-80 100 % of control | [2] 93 % of control | endpoint: mean survival time, dose: 100.0 mg/kg/injection, schedule: Q01DX005 (ip), vehicle: saline with Tween-80 88 % of control | [8] 89 % of control

COc1cc(Cl)ccc1NC(=O)Oc1ccc([N+](=O)[O-])cc1
inactive: [2] 96 % of control | [8] 96 % of control | [3] 100 % of control
